Source: patent publication US20160235727A1, “NOVEL PYRROLIDINE DERIVED BETA 3 ADRENERGIC RECEPTOR AGONISTS” (Merck Sharp & Dohme Corp., priority 2013, published 2016)

Biological target: T1, human β3-AR (Homo sapiens, UniProt P13945)
T1 construct: expressed in transfected cells; host or cells: CHO (Chinese hamster ovary) cells, stably transfected
Assay: cAMP functional agonist assay (LANCE TR-FRET) in CHO cells expressing cloned human β3-AR
Assay type: cell-based
Conditions: for EC50: CHO cells stably expressing cloned human β3-adrenoceptor, cAMP release, read-out: Human β3-AR Agonism EC50; for Fold drop in potency vs. 2-chloropyridine analog: EC50 of comparative example divided by EC50 of corresponding 2-chloropyridine compound; for Human β3-AR Agonist Activity (%): percent maximum activation relative to isoproterenol

T1 sequence (P13945 whole entry): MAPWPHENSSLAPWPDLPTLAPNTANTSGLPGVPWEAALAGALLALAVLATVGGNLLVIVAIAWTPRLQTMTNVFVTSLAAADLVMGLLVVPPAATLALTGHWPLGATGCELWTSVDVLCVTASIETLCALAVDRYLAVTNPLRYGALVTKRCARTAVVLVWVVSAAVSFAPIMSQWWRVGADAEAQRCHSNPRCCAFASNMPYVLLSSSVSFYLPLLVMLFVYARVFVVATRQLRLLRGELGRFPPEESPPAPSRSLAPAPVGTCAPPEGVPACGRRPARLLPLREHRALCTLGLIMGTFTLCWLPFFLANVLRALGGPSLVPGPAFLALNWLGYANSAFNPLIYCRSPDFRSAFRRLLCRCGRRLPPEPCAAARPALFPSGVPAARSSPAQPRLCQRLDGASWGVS

Row | SMILES | EC50 [µM] | Fold drop in potency vs. 2-chloropyridine analog [fold] | Human β3-AR Agonist Activity (%)
1 | CN(Cc1cncc(C(C)(C)O)c1)C(=O)c1ccc(C[C@@H]2CC[C@H]([C@H](O)c3ccccc3)N2)cc1 [Example 32-B, 4-(((2S,5R)-5-((R)-hydroxy(phenyl)methyl)pyrrolidin-2-yl)methyl)-N-((5-(2-hydroxypropan-2-yl)pyridin-3-yl)methyl)-N-methylbenzamide] | 0.022 | 1.8 | 109
2 | CN(Cc1cncc(C(C)(C)O)c1)C(=O)c1ccc(C[C@@H]2CC[C@H]([C@H](O)c3ccc(Cl)cc3)N2)cc1 [Example 32-G, 4-(((2S,5R)-5-((R)-(4-chlorophenyl)(hydroxy)methyl)pyrrolidin-2-yl)methyl)-N-((5-(2-hydroxypropan-2-yl)pyridin-3-yl)methyl)-N-methylbenzamide] | 0.016 | 1.2 | 98
3 | CN(Cc1cncc(C(=O)O)c1)C(=O)c1ccc(C[C@@H]2CC[C@H]([C@H](O)c3ccc(Cl)nc3)N2)cc1 [Example 33-A, 5-((4-(((2S,5R)-5-((R)-(6-chloropyridin-3-yl)(hydroxy)methyl)pyrrolidin-2-yl)methyl)-N-methylbenzamido)methyl)nicotinic acid] | 0.044 |  | 101
4 | CN(Cc1cncc(C(=O)O)c1)C(=O)c1ccc(C[C@@H]2CC[C@H]([C@H](O)c3ccccc3)N2)cc1 [Example 33-B, 5-((4-(((2S,5R)-5-((R)-hydroxy(phenyl)methyl)pyrrolidin-2-yl)methyl)-N-methylbenzamido)methyl)nicotinic acid] | 0.087 | 87.0 | 111
5 | CN(Cc1cncc(C(=O)O)c1)C(=O)c1ccc(C[C@@H]2CC[C@H]([C@H](O)c3ccc(Cl)cc3)N2)cc1 [Example 33-G, 5-((4-(((2S,5R)-5-((R)-(4-chlorophenyl)(hydroxy)methyl)pyrrolidin-2-yl)methyl)-N-methylbenzamido)methyl)nicotinic acid] | 0.063 | 1.4 | 102
6 | COC(=O)c1cncc(CN(C)C(=O)c2ccc(C[C@@H]3CC[C@H]([C@H](O)c4ccc(Cl)nc4)N3)cc2)c1 [Example 34-A, Methyl 5-((4-(((2S,5R)-5-((R)-(6-chloropyridin-3-yl)(hydroxy)methyl)pyrrolidin-2-yl)methyl)-N-methylbenzamido)methyl)nicotinate] | 0.006 |  | 90
7 | COC(=O)c1cncc(CN(C)C(=O)c2ccc(C[C@@H]3CC[C@H]([C@H](O)c4ccccc4)N3)cc2)c1 [Example 34-B, Methyl 5-((4-(((2S,5R)-5-((R)-hydroxy(phenyl)methyl)pyrrolidin-2-yl)methyl)-N-methylbenzamido)methyl)nicotinate] | 0.014 | 2.3 | 101
8 | COC(=O)c1cncc(CN(C)C(=O)c2ccc(C[C@@H]3CC[C@H]([C@H](O)c4ccc(Cl)cc4)N3)cc2)c1 [Example 34-G, Methyl 5-((4-(((2S,5R)-5-((R)-(4-chlorophenyl)(hydroxy)methyl)pyrrolidin-2-yl)methyl)-N-methylbenzamido)methyl)nicotinate] | 0.018 | 2.9 | 90
9 | CN(Cc1cncc(C#N)c1)C(=O)c1ccc(C[C@@H]2CC[C@H]([C@H](O)c3ccc(Cl)nc3)N2)cc1 [Example 35-A, 4-(((2S,5R)-5-((R)-(6-chloropyridin-3-yl)(hydroxy)methyl)pyrrolidin-2-yl)methyl)-N-((5-cyanopyridin-3-yl)methyl)-N-methylbenzamide] | 0.017 |  | 91
10 | CN(Cc1cncc(C#N)c1)C(=O)c1ccc(C[C@@H]2CC[C@H]([C@H](O)c3ccccc3)N2)cc1 [Example 35-B, N-((5-cyanopyridin-3-yl)methyl)-4-(((2S,5R)-5-((R)-hydroxy(phenyl)methyl)pyrrolidin-2-yl)methyl)-N-methylbenzamide] | 0.062 | 3.6 | 102
11 | Cc1nnc(-c2cncc(CN(C)C(=O)c3ccc(C[C@@H]4CC[C@H]([C@H](O)c5ccc(Cl)nc5)N4)cc3)c2)o1 [Example 36-A, 4-(((2S,5R)-5-((R)-(6-chloropyridin-3-yl)(hydroxy)methyl)pyrrolidin-2-yl)methyl)-N-methyl-N-((5-(5-methyl-1,3,4-oxadiazol-2-yl)pyridin-3-yl)methyl)benzamide] | 0.014 |  | 92
12 | Cc1nnc(-c2cncc(CN(C)C(=O)c3ccc(C[C@@H]4CC[C@H]([C@H](O)c5ccccc5)N4)cc3)c2)o1 [Example 36-B, 4-(((2S,5R)-5-((R)-hydroxy(phenyl)methyl)pyrrolidin-2-yl)methyl)-N-methyl-N-((5-(5-methyl-1,3,4-oxadiazol-2-yl)pyridin-3-yl)methyl)benzamide] | 0.059 | 4.3 | 101
13 | CN(Cc1cncc(-c2nnn[nH]2)c1)C(=O)c1ccc(C[C@@H]2CC[C@H]([C@H](O)c3ccc(Cl)nc3)N2)cc1 [Example 37-A, N-((5-(1H-tetrazol-5-yl)pyridin-3-yl)methyl)-4-(((2S,5R)-5-((R)-(6-chloropyridin-3-yl)(hydroxy)methyl)pyrrolidin-2-yl)methyl)-N-methylbenzamide] | 0.027 |  | 94
14 | CN(Cc1cncc(-c2nn[nH]n2)c1)C(=O)c1ccc(C[C@@H]2CC[C@H]([C@H](O)c3ccccc3)N2)cc1 [Example 37-B, N-((5-(1H-tetrazol-5-yl)pyridin-3-yl)methyl)-4-(((2S,5R)-5-((R)-hydroxy(phenyl)methyl)pyrrolidin-2-yl)methyl)-N-methylbenzamide] | 0.063 | 2.4 | 101
15 | CN(Cc1cncc(F)c1)C(=O)c1ccc(C[C@@H]2CC[C@H]([C@H](O)c3ccc(Cl)nc3)N2)cc1 [Example 38-A, 4-(((2S,5R)-5-((R)-(6-chloropyridin-3-yl)(hydroxy)methyl)pyrrolidin-2-yl)methyl)-N-((5-fluoropyridin-3-yl)methyl)-N-methylbenzamide] | 0.008 |  | 58
16 | CN(Cc1cncc(F)c1)C(=O)c1ccc(C[C@@H]2CC[C@H]([C@H](O)c3ccccc3)N2)cc1 [Example 38-B, N-((5-fluoropyridin-3-yl)methyl)-4-(((2S,5R)-5-((R)-hydroxy(phenyl)methyl)pyrrolidin-2-yl)methyl)-N-methylbenzamide] | 0.007 | 0.9 | 100
17 | Cc1cc(CN(C)C(=O)c2ccc(C[C@@H]3CC[C@H]([C@H](O)c4ccc(Cl)nc4)N3)cc2)cnc1F [Example 39-A, 4-(((2S,5R)-5-((R)-(6-chloropyridin-3-yl)(hydroxy)methyl)pyrrolidin-2-yl)methyl)-N-((6-fluoro-5-methylpyridin-3-yl)methyl)-N-methylbenzamide] | 0.001 |  | 96
18 | Cc1cc(CN(C)C(=O)c2ccc(C[C@@H]3CC[C@H]([C@H](O)c4ccccc4)N3)cc2)cnc1F [Example 39-B] | 0.002 | 3.8 | 104
19 | Cc1cc(CN(C)C(=O)c2ccc(C[C@@H]3CC[C@H]([C@H](O)c4cccnc4)N3)cc2)cnc1F [Example 39-H] | 0.007 | 14.1 | 103
20 | CN(Cc1cnccn1)C(=O)c1ccc(C[C@@H]2CC[C@H]([C@H](O)c3ccc(Cl)nc3)N2)cc1 [Example 40-A, 4-(((2S,5R)-5-((R)-(6-chloropyridin-3-yl)(hydroxy)methyl)pyrrolidin-2-yl)methyl)-N-methyl-N-(pyrazin-2-ylmethyl)benzamide] | 0.012 |  | 111
21 | CN(Cc1cnccn1)C(=O)c1ccc(C[C@@H]2CC[C@H]([C@H](O)c3ccccc3)N2)cc1 [Example 40-B, 4-(((2S,5R)-5-((R)-hydroxy(phenyl)methyl)pyrrolidin-2-yl)methyl)-N-methyl-N-(pyrazin-2-ylmethyl)benzamide] | 0.017 | 1.5 | 99
22 | CN(Cc1cnccn1)C(=O)c1ccc(C[C@@H]2CC[C@H]([C@H](O)c3cccc(Cl)c3)N2)cc1 [Example 40-D, 4-(((2S,5R)-5-((R)-(3-chlorophenyl)(hydroxy)methyl)pyrrolidin-2-yl)methyl)-N-methyl-N-(pyrazin-2-ylmethyl)benzamide] | 0.567 | 48.6 | 86
23 | CN(Cc1cnccn1)C(=O)c1ccc(C[C@@H]2CC[C@H]([C@H](O)c3ccc(Cl)cc3)N2)cc1 [Example 40-G, 4-(((2S,5R)-5-((R)-(4-chlorophenyl)(hydroxy)methyl)pyrrolidin-2-yl)methyl)-N-methyl-N-(pyrazin-2-ylmethyl)benzamide] | 0.019 | 1.6 | 100
